Results reported in patent US10456553B2, “Device and methods for targeted tissue drug delivery” (NATIVE CARDIO, INC., priority 2012, dated 2019).

Assays:
[1] = test system: atria; assay: Atrial electrophysiology (right atrial ERP) and atrial fibrillation induction after pericardial or intravenous procainamide; format: in vivo; settings: swine
Experimental: (§1) Studies were conducted to determine the differences between intrapericardial (IPC) drug delivery versus intravenous (IV) drug delivery of the antiarrhythmic drug procainamide. In one study, using two groups of swine, investigators administered procainamide intravenously (n=6) or […] (n=7) using sequential intravenous doses of 2, 8, 16 mg/kg (cumulative was 2, 10, 26 mg/kg) or sequential pericardial doses of 0.5, 1, and 2 mg/kg (cumulative was 0.5, 1.5, 3.5 mg/kg). Each dose was re-suspended in 10 ml and administered at a rate of 1 mL/min. The pharmacokinetics of the two drug delivery methods was statistically significant. Pericardial delivery produced peak drug concentrations within the range of 250 to 900 ug/ml while the measurable level for plasma concentration was low (<1 ug/mL). […] It should be noted that the pericardial fluid concentration during intravenous delivery was 100 times less than that of intrapericardial delivery. The atrial electrophysiologic values were similar between both sets of delivery methods, indicating a lower direct dose can achieve similar therapeutic responses. The 3.5 mg/kg cumulative pericardial dose increased right atrial ERP by 22% from the baseline, while the 10 and 26 mg/kg cumulative intravenous doses prolonged atrial ERP by 24% and 18%, respectively. In addition, the cumulative doses of 3.5 mg/kg (pericardial) and 26 mg/kg (intravenous) prevented atrial fibrillation induction in 71% and 83% of the animals, respectively.

[2] = test system: ventricular electrophysiology; assay: Ventricular electrophysiology, heart rate and systemic blood pressure after pericardial or intravenous procainamide; format: in vivo; settings: swine
Experimental: as §1

[3] = design: species or system swine; settings: in vivo
Experimental: as §1, with “In addition, the cumulative doses of 3.5 mg/kg (pericardial) and 26 mg/kg (intravenous) prevented atrial fibrillation induction in 71% and 83% of the animals, respectively.” left out

Structure (SMILES): CCN(CC)CCNC(=O)c1ccc(N)cc1 [procainamide]
- animals in which atrial fibrillation induction was prevented ([1]; 3.5 mg/kg cumulative dose, pericardial): 71%
- increase of right atrial ERP from the baseline ([1]; 3.5 mg/kg cumulative pericardial dose): 22%
- prolongation of atrial ERP ([1]; 10 mg/kg cumulative intravenous dose): 24%
- animals in which atrial fibrillation induction was prevented ([1]; 26 mg/kg cumulative dose, intravenous): 83%
- prolongation of atrial ERP ([1]; 26 mg/kg cumulative intravenous dose): 18%
- atrial ventricular conduction times ([2]; 26 mg/kg intravenous dose): prolonged
- interventricular conduction (RV and LV activation) ([2]; 26 mg/kg intravenous dose): reduced
- effects on ventricular electrophysiology, heart rate, or systemic blood pressure ([2]; pericardial delivery): no significant effects
- concentrations within the pericardial fluid ([3]; iv): equal to that of the plasma concentration
- pericardial fluid concentration during intravenous delivery relative to intrapericardial delivery ([3]; swine): 100 times less
